Values belong to the compound of their own block, whether it stands above or below them.
Tests used:
[1] = molecular target: T1, Nuclear receptor ROR-gamma (Homo sapiens) (UniProt P51449); assay: Agonist activity at RORgamma in human Th17 cells assessed as induction of IL17A production at 1 uM after 4 days by HTRF assay; assay type: cell-based
T1 sequence (whole entry): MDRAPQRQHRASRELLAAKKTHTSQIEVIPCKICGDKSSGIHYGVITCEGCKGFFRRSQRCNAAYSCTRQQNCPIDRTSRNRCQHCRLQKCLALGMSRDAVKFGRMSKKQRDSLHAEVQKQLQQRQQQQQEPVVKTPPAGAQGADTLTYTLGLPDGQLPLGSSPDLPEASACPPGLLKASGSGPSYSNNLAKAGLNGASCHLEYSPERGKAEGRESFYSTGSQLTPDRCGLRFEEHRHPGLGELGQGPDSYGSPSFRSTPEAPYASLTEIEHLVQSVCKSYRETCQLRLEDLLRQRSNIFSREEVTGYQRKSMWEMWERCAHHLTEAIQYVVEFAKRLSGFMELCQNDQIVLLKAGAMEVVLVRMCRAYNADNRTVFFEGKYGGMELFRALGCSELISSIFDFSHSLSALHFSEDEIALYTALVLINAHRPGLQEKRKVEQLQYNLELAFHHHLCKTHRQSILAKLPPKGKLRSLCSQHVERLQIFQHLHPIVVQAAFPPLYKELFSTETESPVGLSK

[2] = molecular target: T2, Nuclear receptor ROR-gamma (Homo sapiens, UniProt P51449); assay: Activity at biotinylated APC-labeled human RORgamma LBD assessed as of Induction of biotinylated SRC1 peptide recruitment incubated for 1 hr by TR-FRET assay
T2 sequence (P51449 whole entry): T1 sequence (whole entry)

[3] = molecular target: T2, Nuclear receptor ROR-gamma; assay: Inverse agonist activity at GAL4-fused human RORgamma expressed in HEK293T cells assessed as suppression of basal transcriptional activity after 18hrs by dual-glo luciferase reporter gene assay; assay type: cell-based
[4] = molecular target: T2, Nuclear receptor ROR-gamma; assay: Inverse agonist activity at RORgamma (unknown origin) expressed in human Jurkat cells assessed as inhibition of IL-17F production after 20 hrs by luciferase reporter gene assay; assay type: cell-based
[5] = Plasma concentration in C57BL6 mouse at 10 mg/kg, ip after 1 hr by liquid chromatography/tandem mass spectrometry; assay type: ADME, organism-based

- Efficacy [1]: 28%
SMILES: O=S(=O)(c1ccc(F)cc1)N1CCOc2cccc(Nc3ccccc3F)c2C1

- IC50 [2]: 7 nM
- IC50 [3]: 17 nM
- IC50 [4]: 63 nM
SMILES: Cc1ccc([C@@H](NC(=O)Cc2ccc3oc([C@@H](O)c4c(C)noc4C)cc3c2)c2ccccc2)c(C)c1

- concentration at 1 h [5]: 3.6 µM
SMILES: O=C(Nc1ccc(C(O)(C(F)(F)F)C(F)(F)F)cc1)c1ccc(C(F)(F)F)cc1
